# Data from patent publication US7700352B2, “Composition for culturing mouse pluripotent stem cells” (Riken, priority 2002, dated 2010).
# No end group written: not given here.
# Tests used:
# [1] = test system: feeder cell-independent ES cells (E14tg2a, CGR8); assay: Formation of colonies of undifferentiated ES cells in medium free of serum and feeder cells (GMEM + LIF + 2-ME + KSR), Leischman staining; type: cell-based, mouse; conditions: for relative potency of the colony-forming capability: comparison among candidate peptides / ACTH fragments; for capability to form a colony of undifferentiated cells: peptide at 1 μM in medium with LIF + 2-ME + KSR
# Procedure: One hundred of the feeder cell-independent ES cells (E14tg2a (Hooper, M. et al., Nature, 325, 292 (1987)), CGR8 (Mountford, P. et al., Proc. Natl. Acad. Sci. USA, 91, 4303 (1994)), and ES cells derived therefrom) were incubated on the gelatinated 12-well plate treated with a 0.1% (w/v) gelatin solution at 37° C. in 5% CO2 in one ml of a culture medium of Glasgow minimum essential medium (GMEM; Sigma) used as a cell culture minimum medium supplemented with (1) 1×10^3 U/ml LIF (ESGRO, Invitrogen), (3) 0.1 μM 2-mercaptoethanol (Nacalai Tesque), and (5) 10% (v/v) KSR (Invitrogen) per well.
# Five days or more after the incubation, the supernatant was removed by aspiration, and then a Leischman staining liquid (1.5 g Leischman Staining: Sigma/L methanol) was added to the plate until the liquid covered all of the surface of the plate. The plate was left at room temperature for 10 minutes, and rinsed with water (Leischman staining). For the blue-stained colonies, no formation of colonies that maintained their morphology in an undifferentiated state was shown by the naked eye and light microscopy (FIG. 1 (g)). When the ES cells were incubated in a culture medium wherein the medium described above was supplemented with 0.3% (v/v) FCS (2), an average of 17 colonies of undifferentiated cells was observed (FIG. 1 (d)). […] Further, a formation of colonies of undifferentiated cells was observed when the ES cells were incubated at 1000 or more per well in the culture medium having the same composition ((1)+(3)+(5)). When the conditioned medium (CM) was added to a culture medium at a final concentration of 10% (v/v), and 100 ES cells per well were incubated therein, then an average of 7 colonies of undifferentiated cells was observed (FIG. 1 (f)).
# Subsequently, a candidate peptide that had been selected from diverse known growth factors, cytokines, peptide hormones and the like, was added to the culture medium comprising (1)+(3)+(5), and the ES cells were incubated therein at 37° C. in 5% CO2 so that a capability of the candidate to form a colony of undifferentiated cells was determined. […] It should be noted that FIG. 1 (a) to (c) show the results obtained from the medium consisting of GMEM, LIF and 2-ME, supplemented with FCS+feeder cells, KSR+feeder cells, and FCS, respectively.
# In a similar manner to the above, ACTH and the fragments thereof were added to the culture medium at a final concentration of 1 μM wherein (1) LIF, (3) 2-ME, and (5) KSR were supplemented to a cell culture minimum medium.
# ACHT has been known to activate an ACTH receptor belonging to G-protein-coupled receptor families, which receptor activates an adenylate cyclase activity through the activation of trimeric G proteins containing the Gα s subunit. Now, to a cell culture minimum medium supplemented with (1) 1×10^3 U/ml LIF, (3) 0.1 μM 2-ME, (5) 10% (v/v) KSR, and (6) 10 μM ACTH, an inhibitor of an adenylate cyclase activity, SQ22536 (9-(tetrahydro-2-furanyl)adenine) (Sigma) at 100 μM, was further added, and the resultant medium was used to culture the ES cells in a similar manner to that of Example 1.
# In order to check the effect of sole SQ22536, a cell culture minimum medium supplemented with (1) 1×10^3 U/ml LIF, (3) 0.1 μM 2-ME, (5) 10% (v/v) KSR, and (7) SQ22536 100 μM was used to culture the ES cells in a similar manner to that of Example 1. As a result, an average of nine colonies of undifferentiated cells was observed. Further, even when the medium added with another inhibitor of an adenylate cyclase activity, 2′,5′-dideoxyadenosine (Sigma) 500 μM, was used, an average of eight colonies of undifferentiated cells was observed. […]
# [2] = test system: ES cells injected into the mouse blastocyst; assay: Chimeric mouse production from ES cells injected into the mouse blastocyst (retention of pluripotency); type: in vivo; conditions: ES cells cultured with 1 nM adrenocorticotropic hormone
# Procedure: The undifferentiated ES cells derived from the colonies obtained by the culture with 1 nM adrenocorticotropic hormone in Example 1 as described above were further subcultured twice, and the resultant cells were injected into the mouse blastocyst to complete the transplantation into the pseudopregnant mouse uterus.
# [3] = test system: inner cell masses of C57BL/6 blastocysts; assay: Establishment of ES cell lines from inner cell masses of blastocysts in serum-free, feeder-free medium; type: cell-based, mouse; conditions: 10 μM ACTH, LIF, 2-ME, KSR, fibronectin-coated plate; thirty C57BL/6 embryos
# Procedure: Thirty embryos at blastocyst stage of 3.5 days old were removed from C57BL/6 inbred mouse strains, and the inner cell masses isolated from the embryos by immunosurgery were individually incubated in the culture medium consisting of CCMM, (1) 1×10^3 U/ml LIF, (3) 0.1 μM 2-ME, 0.1 mM non-essential amino acids, 1 mM sodium pyruvate, (5) 10% (v/v) KSR, and (6) 10 μM ACTH on a plate coated with fibronectin.
# [4] = SQ22536 100 μM added to medium with 10 μM ACTH, 7th day
# [5] = 10 μM ACTH (1-24), compared with 0.3% FCS or 10% CM
# [6] = pertussis toxin 100 ng/ml added to medium with 10 μM ACTH
compound,measurement,setting,value
"C[C@H]1O[C@@H](n2cnc3c(N)ncnc32)C[C@@H]1O [2′,5′-dideoxyadenosine]",average number of colonies of undifferentiated cells,"[1]; 2′,5′-dideoxyadenosine 500 μM in LIF + 2-ME + KSR medium",eight
"Nc1ncnc2c1ncn2C1CCCO1 (stereo not drawn) [SQ22536, 9-(tetrahydro-2-furanyl)adenine]",formation of colonies of undifferentiated cells,[1]; [4],no formation of colonies of undifferentiated cells was unexpectedly inhibited
same,size of individual colonies,[1]; [4],significantly increased
same,average number of colonies of undifferentiated cells,[1]; SQ22536 100 μM alone (no ACTH) in LIF + 2-ME + KSR medium,nine
"ACTH (1-24): fragment of ACTH, amino acids from the N-terminus 1 to 24",cell proliferation rate,[1]; [5],equivalent to that in the case of 0.3% FCS or 10% CM
same,formation rate of undifferentiated cell colonies,[1]; [5],equivalent to that in the case of 0.3% FCS or 10% CM
same,relative potency of the colony-forming capability,[1],most potent capability among the fragments having a capability
same,formation of the colony of undifferentiated cells,[1]; final concentration of 0.1 μM,showed the formation of the colony of undifferentiated cells
same,capability to form a colony of undifferentiated cells,[1],showed to have the capability
"ACTH (11-24): fragment of ACTH, amino acids 11 to 24 (KPVGKKRRPVKVYP; Corticotropin; UniProt P01189 148-161, looked up, fragment)",capability to form a colony of undifferentiated cells,[1],showed to have the capability
"ACTH (18-39): fragment of ACTH, amino acids 18 to 39 (RPVKVYPNGAEDESAEAFPLEF; Corticotropin; UniProt P01189 155-176, looked up, fragment)",capability to form a colony of undifferentiated cells,[1],showed to have no capability
"adrenocorticotropic hormone (SYSMEHFRWGKPVGKKRRPVKVYPNGAEDESAEAFPLEF; Corticotropin; UniProt P01189 138-176, looked up) [ACTH, peptide hormone composed of 39 amino acid residues (ACTH (1-39))]",relative potency of the colony-forming capability,[1],the capability at the lowest concentration among the candidate peptides
same,capability to form a colony of undifferentiated cells,[1]; listed as ACTH (1-39),showed to have the capability
same,capability to form a colony of undifferentiated cells,[1]; listed as adrenocorticotropic hormone,formation of colonies of undifferentiated ES cells having the apparent morphology was observed
same,chimeric mice with an ES cell contribution ratio of 70% or more (hair color),[2],17 litters
same,contribution of the ES cells to the germ cell line (inbreeding),[2],the inbreeding showed the contribution of the ES cells to the germ cell line
same,female litters among the 17 chimeric litters,[2],14 litters
same,litters survived three weeks or more after birth,[2],30 litters
same,litters produced from 100 transplanted embryos,"[2]; subcultured twice, injected into blastocyst",33 litters
same,inner cells that initiated proliferation and finally established ES cell lines,[3],at least two
brain natriuretic peptide,capability to form a colony of undifferentiated cells,[1],formation of colonies of undifferentiated ES cells having the apparent morphology was observed
pertussis toxin,effect of ACTH on colony formation,[1]; [6],the effect of ACTH was inhibited
same,size of the colonies of undifferentiated cells,[1]; [6],drastically decreased
"pituitary adenylate cyclase activating polypeptide (HSDGIFTDSYSRYRKQMAVKKYLAAVLGKRYKQRVKNK; ends and bridges not checked; UniProt P18509 132-169, looked up)",capability to form a colony of undifferentiated cells,[1],formation of colonies of undifferentiated ES cells having the apparent morphology was observed
